# Patent US8426447B2, “Spiro-tricyclic ring compounds as beta-secretase modulators and methods of use” (Amgen Inc., priority 2008, dated 2013)
# Where “and” joins values, the source holds several entries; their conditions need not be identical. Equal values may be shown once.
# Experiments:
# BACE1 [1] = target: T1, BACE1 (Homo sapiens, UniProt P56817); assay: In Vitro Enzymatic BACE FRET (Fluorescence Resonance Energy Transfer) Assay; type: biochemical
# Method in brief: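 Buffer 0.05 M acetate pH 4.2 with 10% DMSO final and 100 uM genapol; reaction started with 50 nM FRET peptide substrate (fluorophore/quencher flanking BACE cleavage site), incubated one hour. Stopped with Tris buffer raising pH to neutrality, then fluorescence read.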
# BACE1 [2] = target: T1, BACE1; assay: In Vitro BACE Cell-based Assay (HEK cell assay): Aβ40 in conditioned medium of cells stably expressing Amyloid Precursor Protein, sandwich ELISA
# Method in brief: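 First, APP-stable cells grow 24 h at 37° C., 5% CO2. Next, test compounds are added for 24 h (10 doses, 0.1% DMSO). Finally, medium Aβ40 is determined by pAb40/6E10 sandwich ELISA with Europium TRF, and IC50 is calculated.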
# [3] = Table IV, class symbols, read-out: BACE1 FRET assay
# [4] = Table IV, class symbols, read-out: HEK cell assay
# [5] = Table III, IC50's in uM ranges, read-out: BACE1 FRET assay
# [6] = Table III, IC50's in uM ranges, read-out: HEK cell assay
# [7] = in vitro BACE FRET enzyme assay, IC50 class symbols, read-out: BACE1 FRET assay
# [8] = HEK cell-based assay, Aβ40 in conditioned medium, IC50 class symbols, read-out: HEK cell assay
# T1 sequence (P56817 46-501, species assumed): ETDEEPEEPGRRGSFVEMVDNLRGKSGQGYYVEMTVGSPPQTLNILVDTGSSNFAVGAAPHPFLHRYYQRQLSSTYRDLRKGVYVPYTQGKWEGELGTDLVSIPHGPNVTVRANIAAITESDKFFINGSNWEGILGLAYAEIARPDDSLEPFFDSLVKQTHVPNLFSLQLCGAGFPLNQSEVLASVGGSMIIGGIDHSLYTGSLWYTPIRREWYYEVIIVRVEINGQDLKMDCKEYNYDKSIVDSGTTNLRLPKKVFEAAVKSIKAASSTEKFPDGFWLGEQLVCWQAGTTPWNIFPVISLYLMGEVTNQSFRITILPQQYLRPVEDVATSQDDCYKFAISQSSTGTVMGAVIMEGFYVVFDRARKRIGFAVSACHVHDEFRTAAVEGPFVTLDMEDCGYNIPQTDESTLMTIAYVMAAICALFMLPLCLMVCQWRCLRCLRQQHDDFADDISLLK
structure (smiles),measurement,setting,value
NC1=N[C@]2(CO1)c1cc(C3=CCNCC3)ccc1Oc1ccc(-c3cncnc3)cc12 [compound 964],IC50,BACE1 [1]; read-out: BACE1 FRET assay,< 0.1 µM
same,IC50,BACE1 [2]; read-out: HEK cell assay,< 0.1 µM
Cc1cccc(-c2ccc3c(c2)[C@]2(COC(N)=N2)c2cccnc2O3)c1 [compound 596],IC50,BACE1 [1]; [3],0.1 to 1 µM
same,IC50,BACE1 [2]; [4],1 to 5 µM
CC(C)(C)COc1ccc2c(c1)[C@@]1(COC(N)=N1)c1cc(-c3ccc(OCC4CC4)nc3)cnc1O2 [compound 741],IC50,BACE1 [1]; read-out: BACE1 FRET assay,< 0.1 µM
same,IC50,BACE1 [2]; read-out: HEK cell assay,< 0.1 µM
N#Cc1ccccc1Oc1ccc2c(c1)[C@]1(COC(N)=N1)c1cc(-c3cncnc3)ccc1O2 [compound 965],IC50,BACE1 [1]; read-out: BACE1 FRET assay,0.1 to 1 µM
same,IC50,BACE1 [2]; read-out: HEK cell assay,> 5 µM
CC(C)(C)COc1ccc2c(c1C#N)[C@]1(COC(N)=N1)c1cc(-c3cccnc3)ccc1O2 [compound 943],IC50,BACE1 [1]; read-out: BACE1 FRET assay,< 0.1 µM
same,IC50,BACE1 [2]; read-out: HEK cell assay,0.1 to 1 µM
NC1=N[C@]2(CO1)c1ccccc1Oc1ccc(-c3cccc4ncccc34)cc12 [compound 627],IC50,BACE1 [1]; [3],> 5 µM
same,IC50,BACE1 [2]; [4],> 5 µM
COc1ncc(-c2ccc3c(c2)[C@]2(COC(N)=N2)c2cc(OCC(C)(C)C)ccc2O3)cn1 [compound 188],IC50,BACE1 [1]; [5],0.1 to 1 µM
same,IC50,BACE1 [2]; [6],1 to 5 µM
"NC1=N[C@@]2(CO1)c1cc(-c3cncc(F)c3)ccc1Oc1cnc(C3=CCOCC3)cc12 [compound 368, (5S)-3-(3,6-dihydro-2H-pyran-4-yl)-7-(5-fluoro-3-pyridinyl)spiro[chromeno[2,3-c]pyridine-5,4′-[1,3]oxazol]-2′-amine]",IC50,BACE1 [1]; [7],< 0.1 µM
same,IC50,BACE1 [2]; [8],< 0.1 µM
CC1(COc2ccc3c(c2)[C@@]2(COC(N)=N2)c2cc(-c4ccc(F)cc4)cnc2O3)COC1 [compound 775],IC50,BACE1 [1]; read-out: BACE1 FRET assay,< 0.1 µM
same,IC50,BACE1 [2]; read-out: HEK cell assay,< 0.1 µM
COc1ccc2c(c1)[C@@]1(COC(N)=N1)c1cc(-c3cncnc3)cc(F)c1O2 [152b],IC50,BACE1 [1]; [5],1 to 5 µM
same,IC50,BACE1 [2]; [6],1 to 5 µM
NC1=N[C@@]2(CO1)c1cc(-c3cccnc3F)ccc1Oc1cnc(-c3ccccn3)cc12 [compound 516],IC50,BACE1 [1]; BACE1 FRET assay (uM),< 0.1 µM
same,IC50,"BACE1 [2]; HEK cell assay (uM), HEK cells",< 0.1 µM
"CC(C)(C)CC(=O)c1ccc2c(c1)[C@]1(COC(N)=N1)c1cc(-c3cncnc3)ccc1O2 [compound 48, 1-((4S)-2-amino-7′-(5-pyrimidinyl)spiro[1,3-oxazole-4,9′-xanthen]-2′-yl)-3,3-dimethyl-1-butanone]",IC50,"BACE1 [1]; Table II, read-out: BACE1 FRET assay",0.1 to 1 µM and < 0.1 µM
same,IC50,"BACE1 [2]; Table II, Aβ40, 24 h incubation, read-out: HEK cell assay",0.1 to 1 µM and < 0.1 µM
COc1ccc2c(c1)[C@]1(COC(N)=N1)c1cc(C3=CCOCC3)cc(F)c1O2 [compound 363],IC50,BACE1 [1]; [7],> 5 µM
same,IC50,BACE1 [2]; [8],> 5 µM
CC(C)(C)/C=C/c1ccc2c(c1)[C@]1(COC(N)=N1)c1cc(-c3cncnc3)ccc1O2 [compound 963],IC50,BACE1 [1]; read-out: BACE1 FRET assay,< 0.1 µM
same,IC50,BACE1 [2]; read-out: HEK cell assay,< 0.1 µM
CC(C)(O)COc1ccc2c(c1C#N)[C@]1(COC(N)=N1)c1cc(-c3cccnc3)ccc1O2 [compound 929],IC50,BACE1 [1]; read-out: BACE1 FRET assay,< 0.1 µM
same,IC50,BACE1 [2]; read-out: HEK cell assay,0.1 to 1 µM
NC1=N[C@@]2(CO1)c1cc(-c3ccccc3)ccc1Oc1ncc(C3=CCOCC3)cc12 [compound 580],IC50,BACE1 [1]; [3],< 0.1 µM
same,IC50,BACE1 [2]; [4],< 0.1 µM
CN(C)C(=O)c1ccc2c(c1)[C@]1(COC(N)=N1)c1cc(OCC(C)(C)C)ccc1O2 [compound 799],IC50,BACE1 [1]; [3],0.1 to 1 µM
same,IC50,BACE1 [2]; [4],0.1 to 1 µM
NC1=N[C@@]2(CO1)c1ccccc1Oc1ccc(C(=O)N3CCCCC3)cc12 [compound 639],IC50,BACE1 [1]; [3],> 5 µM
same,IC50,BACE1 [2]; [4],> 5 µM
NC1=N[C@@]2(CO1)c1cc(-c3cccnc3N3CCOCC3)ccc1Oc1ccc(N3CCOCC3)cc12 [compound 391],IC50,BACE1 [1]; [7],0.1 to 1 µM
same,IC50,BACE1 [2]; [8],1 to 5 µM
CC(=O)/C=C/c1ccc2c(c1)[C@]1(COC(N)=N1)c1cc(-c3cncnc3)ccc1O2 [compound 857],IC50,BACE1 [1]; [3],< 0.1 µM
same,IC50,BACE1 [2]; [4],0.1 to 1 µM
"COc1ccc2c(c1)C1(COC(N)=N1)c1cc(-c3ccccc3Cl)ccc1O2 (stereo not drawn) [Example 28, 2′-(2-chlorophenyl)-7′-methoxyspiro[1,3-oxazole-4,9′-xanthen]-2-amine]",IC50,"BACE1 [1]; Table 1, read-out: BACE1 FRET assay",> 5 µM
same,IC50,"BACE1 [2]; Table 1, Aβ40, 24 h incubation, read-out: HEK cell assay",1 to 5 µM
COC(C)(C)COc1ccc2c(c1)[C@]1(COC(N)=N1)c1cc(-c3cccnc3)ccc1O2 [compound 149],IC50,BACE1 [1]; [5],< 0.1 µM
same,IC50,BACE1 [2]; [6],< 0.1 µM
NC1=N[C@]2(CO1)c1cc(CCCCO)ccc1Oc1ccc(-c3cccnc3)cc12 [compound 194],IC50,BACE1 [1]; [5],< 0.1 µM
same,IC50,BACE1 [2]; [6],< 0.1 µM
NC1=N[C@]2(CO1)c1ccccc1Oc1ccc(-c3cc4ccccc4[nH]3)cc12 [compound 567],IC50,BACE1 [1]; [3],1 to 5 µM
same,IC50,BACE1 [2]; [4],> 5 µM
CC(C)(F)COc1cnc2c(c1)[C@]1(COC(N)=N1)c1cc(-c3cccc(C#N)c3)ccc1O2 [compound 357],IC50,BACE1 [1]; [7],< 0.1 µM
same,IC50,BACE1 [2]; [8],< 0.1 µM
NC1=N[C@@]2(CO1)c1cc(-c3cccnc3)ccc1Oc1ccc(N3CCCC3=O)cc12 [compound 863],IC50,BACE1 [1]; [3],< 0.1 µM
same,IC50,BACE1 [2]; [4],0.1 to 1 µM
CC(C)(C)COc1ccc2c(c1)[C@]1(COC(N)=N1)c1cc(-c3cncnc3)cc(F)c1O2 [155b],IC50,BACE1 [1]; [5],< 0.1 µM
same,IC50,BACE1 [2]; [6],0.1 to 1 µM
